Experimental data reported in patent US11524012B1, “Quinolone analogs and their salts, compositions, and method for their use” (Senhwa Biosciences, Inc., priority 2018, dated 2022).

Legend:
[1] = Stability of stock solutions and of spiked human plasma (LC/MS/MS method validation); assay type: physicochemical; conditions: refrigeration (2° C. to 8° C.)
Method: A reference standard stock solution of Compound I was prepared by weighing the reference standard and dissolving it in a solution of 50:50:0.1 (v/v) mixture of ACN:deionized water:formic acid, followed by vortex-mixing and sonication. This stock solution was used for preparation of the calibration standards. Another stock solution of Compound I was prepared following the same procedure and was used for preparation of the QC samples. Both stock solutions were prepared previously and stored at refrigeration (2° C. to 8° C.) prior to use on the day of assay. […] Both solutions were used within the established stability timeframe.
The internal standard stock solution was previously prepared by weighing Compound A (2-(4-Methyl-piperazin-1-yl)-5-oxo-5H-7-thia-1,11b-diaza-benzo[c]fluorene-6-carboxylic acid (5-methyl-pyrazin-2-ylmethyl)-amide) and dissolving it in a solution of 50:50:0.1 (v/v) mixture of ACN:deionized water:formic acid. This stock solution was stored at refrigeration (2° C. to 8° C.) prior to use. […] This solution was used within the established stability timeframe. On the day of assay, this solution was further diluted with a solution of 50:50:0.1 (v/v) mixture of ACN:deionized water:formic acid into a solution for spiking.
This assay method was based on a nominal quantitation range of 5.00 ng/mL to 5000 ng/mL. Validation results met their acceptance criteria for the assessments of calibration range, assay accuracy and precision, hemolysis matrix effects, lipidemic matrix effects, selectivity and specificity, dilution integrity, and assay ruggedness with respect to changing analysts and instrument, and over the run time anticipated for a prospective test sample run. Chromatographic carryover was not observed. A 6-minute assay run time was validated. […] (−63° C. to −77° C.) and following 4 cycles of freeze/thaw.

[2] = tested on: DLD-1 BRCA2−/− (HD 105-007); assay: Anti-proliferation assay 144 h (ATPlite); assay type: cell-based; conditions: for Fold Sensitivity of BRCA2^-/- line: BRCA2^-/- line relative to DLD-1 Parental line; for Fold Sensitivity of BRCA2^-/- line / IC50: 144 h proliferation assay; for IC50: Homo sapiens, DLD-1, ATPlite, read-out: Relative IC50, DLD-1 BRCA2^-/-
Method: (§1) The sensitivity of DLD-1 Parental and BRCA2−/− isogenic cell lines Compound I and Compounds 1 and 7-10 were evaluated in 144 h proliferations assays. Cells were seeded into 384-well plates in McCoy's 5A medium supplemented with 10% FBS at the seeding densities indicated below and allowed to adhere overnight prior to addition of compound or vehicle control. Compounds were weighed out and stock solutions in DMSO were made immediately prior to treatment of cells. Serial dilutions of compounds were prepared in DMSO and diluted in media before being added to cells in quadruplicate to give the final concentrations indicated on graphs (10 μM top concentration, 9-point semi-log dilution series, 0.2% DMSO final concentration for all treatments). Cells were incubated with compounds for 144 h at 37° C., 5% C02 in a humidified atmosphere. At the assay endpoint, ATPlite (Perkin Elmer) reagent was added at a volume equal to the volume of cell culture medium already present in each well and the plates processed as per the manufacturer's instructions. Media only background values were subtract and ted and the data was analyzed using a 4-parameter logistic equation in GraphPad Prism. DLD-1 Parental (HD PAR-008) DLD-1 BRCA2−/− (HD 105-007) used.

[3] = tested on: DLD-1 Parental (HD PAR-008); assay: Anti-proliferation assay 144 h (ATPlite); assay type: cell-based; conditions: Homo sapiens, 144 h proliferation assay, * = value should be considered as approximate, read-out: Relative IC50, DLD-1 Parental
Method: as §1

| Structure (SMILES) | stock solution stable (50:50:0.1 ACN:deionized water:formic acid) [1] [days] | Fold Sensitivity of BRCA2^-/- line [2] | IC50 [2] [nM] | IC50 [3] [nM] | sensitivity of the BRCA2 null line relative to the parental line (in words) ([2]; 144 h) |
| --- | --- | --- | --- | --- | --- |
| Cc1cnc(CNC(=O)c2c(=O)c3ccc(N4CCN(C)CC4)nc3n3c2sc2ccccc23)cn1 [Compound A, 2-(4-Methyl-piperazin-1-yl)-5-oxo-5H-7-thia-1,11b-diaza-benzo[c]fluorene-6-carboxylic acid (5-methyl-pyrazin-2-ylmethyl)-amide, reference compound] | 384 | – | – | – | – |
| Cc1cnc(CNC(=O)c2c(=O)c3ccc(N4CCCNCC4)nc3n3c2sc2ccccc23)cn1 [Compound 7, 2-(1,4-diazepan-1-yl)-N-((5-methylpyrazin-2-yl)methyl)-5-oxo-5H-benzo[4,5]thiazolo[3,2-a][1,8]naphthyridine-6-carboxamide] | – | 21 | 560 | ~12000 | – |
| Cc1cnc(C(=O)NC(=O)c2c(=O)c3ccc(N4CCCN(C)CC4)nc3n3c2sc2ccccc23)cn1 [Compound 10, 2-(4-methyl-1,4-diazepan-1-yl)-N-((5-methylpyrazin-2-yl)carbonyl)-5-oxo-5H-benzo[4,5]thiazolo[3,2-a][1,8]naphthyridine-6-carboxamide] | – | 2.5 | 620 | 1580 | – |
| CN1CCCN(c2ccc3c(=O)c(C(=O)NCCCN4CCCCCC4=O)c4sc5ccccc5n4c3n2)CC1 [Compound 8, 2-(4-methyl-1,4-diazepan-1-yl)-N-(3-(2-oxoazepan-1-yl)propyl)-5-oxo-5H-benzo[4,5]thiazolo[3,2-a][1,8]naphthyridine-6-carboxamide] | – | 74 | 7.2 | 530 | – |
| Cc1cnc(CNC(=O)c2c(=O)c3ccc(N4CCC[N+](C)([O-])CC4)nc3n3c2sc2ccccc23)cn1 (centres unmarked) [Compound 9, 2-(4-methyl-4-oxidodiazepan-4-ium-1-yl)-N-((5-methylpyrazin-2-yl)methyl)-5-oxo-5H-benzo[4,5]thiazolo[3,2-a][1,8]naphthyridine-6-carboxamide] | – | 5.5 | 1590 | ~8780 | – |
| CN1CCCN(c2ccc3c(=O)c(C(N)=O)c4sc5ccccc5n4c3n2)CC1 [Compound 1, 2-(4-methyl-1,4-diazepan-1-yl)-5-oxo-5H-benzo[4,5]thiazolo[3,2-a][1,8]naphthyridine-6-carboxamide] | – | 400 | 4.7 | 1880 | extremely sensitive |
